Laboratory results published in article PMC12326988, “Synthetic host defense peptide inhibits SARS-CoV-2 replication in vitro” (Antimicrobial Agents and Chemotherapy, 2025).
Converted amounts (≈) assume the structure as drawn. Square brackets hold non-standard residues; d marks the D form. Ends that are not written are not given here. Peptide text beside a SMILES is read from it.

What was measured:
VSV-g-pseudotyped virus = assay type: cell-based; settings: virus exposed to agent 1 h, then HEK293T-hACE2 cells
in vitro [1] = settings: African green monkey; human
[2] = test system: SARS-CoV-2 γ spike-pseudotyped virus; assay type: cell-based; settings: virus exposed to agent 1 h, then HEK293T-hACE2 cells
[3] = test system: SARS-CoV-2 (Wuhan) spike-pseudotyped virus; settings: for EC50, entry of pseudotyped virus: HEK293T-ACE2 cells incubated with agent prior to pseudotyped virus
[4] = test system: authentic SARS-CoV-2 virions; settings: 100 µg/mL, 1 h
[5] = test system: SARS-CoV-2 hCoV-19/New Zealand/NZ1_patient/2020; assay type: cell-based
in vitro [6] = settings: African green monkey
[7] = test system: SARS-CoV-2 hCoV-19/New Zealand/NZ1_patient/2020; settings: hCoV-19/New Zealand/NZ1 patient/2020, 72 h
[8] = test system: SARS-CoV-2 hCoV-19/New Zealand/NZ1_patient/2020; settings: hCoV-19/New Zealand/NZ1 patient/2020, 72 h; remark: listed apart in the source
[9] = test system: binding of the SARS-CoV-2 RBD to its human ACE2 receptor; settings: cited from earlier work
[10] = molecular target: binding between SARS-CoV-2 Wuhan RBD-Fc and hACE2-AP (UniProt P0DTC2+Q9BYF1); set-up: species or system SARS-CoV-2; human
binding between SARS-CoV-2 Wuhan RBD-Fc and hACE2-AP, sequence (Q9BYF1 18-740, one chain of several): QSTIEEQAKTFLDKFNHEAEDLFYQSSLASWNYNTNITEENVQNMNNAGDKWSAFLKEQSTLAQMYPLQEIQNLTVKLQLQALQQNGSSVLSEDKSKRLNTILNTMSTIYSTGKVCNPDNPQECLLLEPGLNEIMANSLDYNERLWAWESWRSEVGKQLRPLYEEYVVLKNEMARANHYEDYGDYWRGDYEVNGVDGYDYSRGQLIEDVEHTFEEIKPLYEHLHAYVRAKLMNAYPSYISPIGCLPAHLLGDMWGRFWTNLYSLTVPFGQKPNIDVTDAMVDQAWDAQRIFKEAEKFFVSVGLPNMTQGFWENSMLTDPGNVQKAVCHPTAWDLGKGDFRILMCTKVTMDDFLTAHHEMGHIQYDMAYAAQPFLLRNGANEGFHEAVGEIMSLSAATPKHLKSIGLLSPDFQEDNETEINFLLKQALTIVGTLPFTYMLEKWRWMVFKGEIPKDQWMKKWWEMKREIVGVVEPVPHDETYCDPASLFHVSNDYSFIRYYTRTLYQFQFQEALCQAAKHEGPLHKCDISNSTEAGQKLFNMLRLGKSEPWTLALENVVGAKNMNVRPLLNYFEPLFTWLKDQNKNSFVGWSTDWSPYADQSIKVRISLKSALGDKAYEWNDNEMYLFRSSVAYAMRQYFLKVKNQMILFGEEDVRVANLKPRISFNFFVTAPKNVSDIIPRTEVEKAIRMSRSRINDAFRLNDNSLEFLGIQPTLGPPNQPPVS

SARS-CoV-2-Nluc = settings: 72 h
ELVIRA Flu A cells = settings: 50 µg/mL
MDCK cells = settings: 50 µg/mL

Q: With CC[C@H](C)[C@H](NC(=O)CN)C(=O)NCC(=O)N[C@@H](C)C(=O)N[C@H](C(=O)N[C@@H](CC(C)C)C(=O)N[C@@H](CCCCN)C(=O)N[C@H](C(=O)N[C@@H](CC(C)C)C(=O)N[C@H](C(=O)N[C@H](C(=O)NCC(=O)N[C@@H](CC(C)C)C(=O)N1CCC[C@H]1C(=O)N[C@@H](C)C(=O)N[C@@H](CC(C)C)C(=O)N[C@H](C(=O)N[C@@H](CO)C(=O)N[C@@H](Cc1c[nH]c2ccccc12)C(=O)N[C@H](C(=O)N[C@@H](CCCCN)C(=O)N[C@@H](CCCNC(=N)N)C(=O)N[C@@H](CCCCN)C(=O)N[C@@H](CCCNC(=N)N)C(=O)N[C@@H](CCC(N)=O)C(=O)N[C@@H](CCC(N)=O)C(N)=O)[C@@H](C)CC)[C@@H](C)CC)[C@@H](C)O)[C@@H](C)O)C(C)C)C(C)C [melittin] as the compound, how does the NT50 (VSV-g-pseudotyped virus) read?
A: 5.51 µg/mL

Q: What about the viability (in vitro [1]) of the same compound?
A: 51.7%

Q: What about the NT50 [2] of the same compound?
A: 11.6 µg/mL

Q: And the “EC50, entry of pseudotyped virus” value [3]?
A: 13.2 µg/mL

Q: What about the NT50 ([3]; agent incubated with pseudotyped virus 1 h, then HEK293T-hACE2 cells) of the same compound?
A: 12.5 µg/mL

Q: And the “mean number of intact virus particles per field” value [4]?
A: 1.3

Q: Which results are given for CCC(CC)COC(=O)[C@H](C)N[P@](=O)(OC[C@H]1O[C@@](C#N)(c2ccc3c(N)ncnn23)[C@H](O)[C@@H]1O)Oc1ccccc1 [Remdesivir, remdesivir, reference compound]?
A: inhibition of SARS-CoV-2 replication [5]: 98%; CC50 (in vitro [6]): > 100 µM

Q: What does the source list for CC[C@@H](C)[C@@H](NC(=O)[C@@H](CCCCN)NC(=O)[C@@H](CC(C)C)NC(=O)[C@H](N)C(C)C)C(=O)N[C@H](CCCCN)C(=O)N[C@@H](C(=O)N[C@H](CCCCN)C(=O)N[C@@H](C(=O)N[C@H](Cc1c[nH]c2ccccc12)C(=O)N[C@@H](C(=O)N[C@@H](C(=O)N[C@H](CCCCN)C(N)=O)C(C)C)C(C)C)[C@H](C)CC)C(C)C [D-3007, vlkikvkiwvvk-NH2] (H-[dV][dL][dK][dI][dK][dV][dK][dI][dW][dV][dV][dK]-NH2)?
A: EC50 Vero [7]: 23.86 µg/mL (≈ 16.4 µM); EC50 VeroE6/TMPRSS2 [8]: 30.53 µg/mL (≈ 21 µM); CC50 (in vitro [6]): 708 µg/mL

Q: Which results are given for CC[C@@H](C)[C@@H](NC(=O)[C@@H](C)NC(=O)[C@@H](CCCNC(=N)N)NC(=O)[C@@H](Cc1c[nH]c2ccccc12)NC(=O)[C@@H](CCC(N)=O)NC(=O)[C@H](N)C(C)C)C(=O)N[C@H](CCCNC(=N)N)C(=O)N[C@@H](C(=O)N[C@H](CCCNC(=N)N)C(=O)N[C@@H](C(=O)N[C@@H](C(=O)N[C@H](CCCNC(=N)N)C(N)=O)[C@H](C)CC)C(C)C)C(C)C [DJK-5, vqwrairvrvir-NH2] (H-[dV][dQ][dW][dR][dA][dI][dR][dV][dR][dV][dI][dR]-NH2)?
A: EC50 Vero [7]: 25.16 µg/mL (≈ 16.2 µM); EC50 VeroE6/TMPRSS2 [8]: 29.31 µg/mL (≈ 18.9 µM); CC50 (in vitro [6]): 517 µg/mL

Q: Which “affinity, interference with binding of SARS-CoV-2 RBD to human ACE2” value [9] does the source give for HNP1 here?
A: 160 nM

Q: Which “IC50, inhibition of hACE2-RBD binding” value [10] does the source give for shACE2 here?
A: 6.6 µg/mL

Q: And the NT50 (VSV-g-pseudotyped virus)?
A: > 100 µg/mL

Q: And the “inhibition of SARS-CoV-2 replication” value [5]?
A: 72%

Q: What does the source list for VRLIVAVRIWRR-NH2 [IDR-1018]?
A: EC50 Vero [7]: 21.79 µg/mL; EC50 VeroE6/TMPRSS2 [8]: 28.72 µg/mL; CC50 (in vitro [6]): 686 µg/mL

Q: Which results are given for CC[C@@H](C)[C@@H](N)C(=O)N[C@H](Cc1c[nH]c2ccccc12)C(=O)N[C@H](CC(C)C)C(=O)N[C@H](CCCNC(=N)N)C(=O)N[C@H](CC(C)C)C(=O)N[C@H](CCCCN)C(=O)N[C@@H](C(=O)N[C@@H](C(=O)N[C@H](CC(C)C)C(=O)N[C@H](CCCCN)C(=O)N[C@H](CCCNC(=N)N)C(=O)N[C@H](CCCCN)C(N)=O)C(C)C)C(C)C [D-3006, iwlrlkvvlkrk-NH2] (H-[dI][dW][dL][dR][dL][dK][dV][dV][dL][dK][dR][dK]-NH2)?
A: CC50 at 48 h (in vitro [1]): > 100 µg/mL; EC50 Vero [7]: 1.57 µg/mL (≈ 1.01 µM); EC50 (SARS-CoV-2-Nluc): 5.4 µg/mL (≈ 3.48 µM); EC50 VeroE6/TMPRSS2 [8]: 5.37 µg/mL (≈ 3.46 µM); CC50 (in vitro [6]): 430 µg/mL; EC50, entry of pseudotyped virus [3]: 5.84 µg/mL; cell viability (ELVIRA Flu A cells): did not affect the viability; cell viability (MDCK cells): did not affect the viability

Q: Which “affinity, interference with binding of SARS-CoV-2 RBD to human ACE2” value [9] does the source give for LL-37 here?
A: 25.5 nM
